Measured values: paper PMC13308190, “Endothelial progenitor cell susceptibility to DNA damaging and DDR-modulating compounds determines endothelial differentiation accuracy” (Stem Cell Research & Therapy, 2026)

Experiments:
Type in all cases: cell-based, mouse
mESC = test: Western blot protein expression (densitometry); conditions: mESC 24 h
Description: (§1) Total protein cell extracts were obtained upon sonication in RIPA buffer (EpiShearTM Probe sonicator, Active Motif [La Hulpe, Belgium]). Protein concentrations were determined using the DC Protein Assay (BioRad [Munich, Germany]). Extracts were supplemented with Roti®-Load buffer (Carl Roth GmbH [Karlsruhe, Germany]) followed by heating (95 °C for 5 min). 20 µg of protein was separated by SDS-PAGE and transferred onto nitrocellulose membrane. After blocking (5% non-fat milk in TBS/0.1% Tween 20 or 5% BSA in TBS/0.1% Tween 20) (1 h, RT) membrane was incubated with primary antibodies (1:500–5000; overnight, 4 °C). After washing with TBS/0.1% Tween 20, peroxidase-conjugated secondary antibody (1:2000) was added (2 h, RT) and bands were visualized using ChemiDoxTM Touch imaging system (BioRad, Munich, Germany).

[1] = test system: EC d6 (endothelial-like cells); test: Western blot protein expression (densitometry); conditions: EC d6 24 h; for CHK1 protein / RAD51 protein / gH2AX protein / p-CHK2 protein / p-KAP1 protein / p-RPA32 protein / p-p53 protein: Fig 5D
Description: as §1

[2] = test system: EC d4 (endothelial progenitor cells); test: Western blot protein expression (densitometry); conditions: EC d4 48 h; for CHK1 protein / RAD51 protein / gH2AX protein / p-CHK2 protein / p-KAP1 protein / p-RPA32 protein / p-p53 protein: Fig 5D
Description: as §1

[3] = test system: EC d6 (endothelial-like cells); test: RT-qPCR mRNA expression; conditions: for Cdkn1a mRNA / Cdkn2a mRNA / Glb1 mRNA / Il6 mRNA / Il8 mRNA / Tp53 mRNA: Fig 7C
Description: Total RNA was purified using the RNeasy Mini Kit (Qiagen, Hilden, Germany). Reverse transcriptase (RT) reaction was performed with the HighCapacity cDNA Reverse Transcription Kit (Applied Biosystems, Darmstadt, Germany) using 900–2000 ng of RNA. Quantitative RT-qPCR analysis was performed using following conditions: (1) 95 °C–10 min; (2) 45 amplification cycles with 95 °C–15 s, 55 °C–15 s, and 72 °C–17 s; (3) 95 °C–1 min, 55 °C–1 min, 65 °C–5 s. If not stated otherwise, analyses were performed in technical triplicates using pooled samples from two independent experiments (each performed with biological duplicates) by use of a CFX96 cycler (BioRad) and the SensiMix SYBR Kit (Bioline, London, UK). The primers used for mRNA expression analyses are listed in Supplementary Table 1. To ensure the specificity of the amplification product, melting curves were recorded at the end of the run. mRNA expression levels were normalized to β-Actin and Gapdh. Relative mRNA expression in mESC or corresponding untreated controls was set to 1.0. Only changes in gene expression of ≤ 0.5- and ≥ 2-fold were considered as biologically relevant.

EC d4 [4] = test: ZO1 tight junction immunofluorescence; conditions: EC d4 treated 48 h
EC d4 [5] = test: EdU incorporation (S-phase activity); conditions: EC d4 48 h
Description: S-phase activity of cells was monitored by measuring EdU incorporation using the EdU-Click 488 assay according to the manufacturer’s protocol. Briefly, cells were pulse-treated with 5-ethynyl-2′-deoxyuridine (EdU) for 3 h. Alexa Fluor 488-conjugated reaction cocktail was added (30 min, RT) and nuclei were counterstained with DAPI. The percentage of EdU-positive area/DAPI-positive area was calculated by fluorescence microscopy (Olympus BX43, 20x objective).

[6] = Fig 5D, concentration 1 (Dox 1/B02 1/EST 1)
[7] = Fig 5D, concentration 2 (Dox 2/B02 2/EST 2)
[8] = concentration 1 (Dox 1/B02 1/EST 1)
[9] = concentration 2 (Dox 2/B02 2/EST 2)
[10] = EC d6 + 10 µM 24 h + 24 h post incubation
[11] = EC d6 + 20 µM 24 h + 24 h post incubation

In the case of O=c1c2ccccc2nc(/C=C/c2cccnc2)n1Cc1ccccc1 [B02], the H3ac protein (mESC; Fig 1D) was 1.8 Fold of mESC, the H4ac protein (mESC; Fig 1D) was 232.9 Fold of mESC and the “aTubac (acetylated α-Tubulin) protein” value (mESC; Fig 1D) was 0.5 Fold of mESC. The CHK1 protein (mESC; Fig 4H, Eto, Dox 1, B02, EST) was 1.4 Fold of mESC, the p-ATR protein (mESC; Fig 4H, Eto, Dox 1, B02, EST) was 2.7 Fold of mESC and the p-CHK1 protein (mESC; Fig 4H, Eto, Dox 1, B02, EST) was 0.8 Fold of mESC. The p-RPA32 protein (mESC; Fig 4H, Eto, Dox 1, B02, EST) was 2.0 Fold of mESC, the p-p53 protein (mESC; Fig 4H, Eto, Dox 1, B02, EST) was 1.2 Fold of mESC and the CHK1 protein (mESC; [6]) was 0.8 Fold of mESC. For the same compound, the RAD51 protein (mESC; [6]) was 1.9 Fold of mESC, the gH2AX protein (mESC; [6]) was < 0.1 Fold of mESC and the p-CHK2 protein (mESC; [6]) was 0.9 Fold of mESC. For the same compound, the p-KAP1 protein (mESC; [6]) was 1.30 Fold of mESC, the p-RPA32 protein (mESC; [6]) was 0.8 Fold of mESC and the p-p53 protein (mESC; [6]) was 0.9 Fold of mESC. For the same compound, the CHK1 protein (mESC; [7]) was 1.0 Fold of mESC, the RAD51 protein (mESC; [7]) was 2.3 Fold of mESC and the gH2AX protein (mESC; [7]) was 0.5 Fold of mESC. For the same compound, the p-CHK2 protein (mESC; [7]) was 1.1 Fold of mESC, the p-KAP1 protein (mESC; [7]) was 1.26 Fold of mESC and the p-RPA32 protein (mESC; [7]) was 1.3 Fold of mESC. For the same compound, the p-p53 protein (mESC; [7]) was 1.2 Fold of mESC, the AMPKa protein (mESC; Fig 6E) was 0.2 Fold of mESC and the GSK3b protein (mESC; Fig 6E) was 1.3 Fold of mESC. The p-p70SK protein (mESC; Fig 6E) was 1.2 Fold of mESC, the H3ac protein ([1]; Fig 1D) was 0.1 Fold of mESC and the H4ac protein ([1]; Fig 1D) was 0.0 Fold of mESC. For the same compound, the “aTubac (acetylated α-Tubulin) protein” value ([1]; Fig 1D) was 0.3 Fold of mESC, the CHK1 protein [1, 8] was 0.7 Fold of mESC and the RAD51 protein [1, 8] was 0.7 Fold of mESC. The gH2AX protein [1, 8] was 1.2 Fold of mESC, the p-CHK2 protein [1, 8] was 0.1 Fold of mESC and the p-KAP1 protein [1, 8] was 0.0 Fold of mESC. The p-RPA32 protein [1, 8] was 0.1 Fold of mESC, the p-p53 protein [1, 8] was 0.4 Fold of mESC and the CHK1 protein [1, 9] was 0.1 Fold of mESC. The RAD51 protein [1, 9] was < 0.1 Fold of mESC, the gH2AX protein [1, 9] was 0.1 Fold of mESC and the p-CHK2 protein [1, 9] was 0.0 Fold of mESC. For the same compound, the p-KAP1 protein [1, 9] was 0.0 Fold of mESC, the p-RPA32 protein [1, 9] was < 0.1 Fold of mESC and the p-p53 protein [1, 9] was 0.2 Fold of mESC. The AMPKa protein ([1]; Fig 6E) was 0.1 Fold of mESC, the GSK3b protein ([1]; Fig 6E) was 1.8 Fold of mESC and the p-p70SK protein ([1]; Fig 6E) was 1.1 Fold of mESC. The H3ac protein ([2]; Fig 1D) was 0.0 Fold of mESC, the H4ac protein ([2]; Fig 1D) was 0.0 Fold of mESC and the “aTubac (acetylated α-Tubulin) protein” value ([2]; Fig 1D) was 0.6 Fold of mESC. For the same compound, the CHK1 protein [2, 8] was 0.4 Fold of mESC, the RAD51 protein [2, 8] was 0.7 Fold of mESC and the gH2AX protein [2, 8] was 1.8 Fold of mESC. For the same compound, the p-CHK2 protein [2, 8] was 0.2 Fold of mESC, the p-KAP1 protein [2, 8] was 0.0 Fold of mESC and the p-RPA32 protein [2, 8] was 0.3 Fold of mESC. The p-p53 protein [2, 8] was 0.6 Fold of mESC, the CHK1 protein [2, 9] was 0.2 Fold of mESC and the RAD51 protein [2, 9] was 0.3 Fold of mESC. The gH2AX protein [2, 9] was 0.0 Fold of mESC, the p-CHK2 protein [2, 9] was < 0.1 Fold of mESC and the p-KAP1 protein [2, 9] was 0.0 Fold of mESC. The p-RPA32 protein [2, 9] was 0.4 Fold of mESC, the p-p53 protein [2, 9] was 0.3 Fold of mESC and the AMPKa protein ([2]; Fig 6E) was 0.1 Fold of mESC. The GSK3b protein ([2]; Fig 6E) was 1.9 Fold of mESC, the p-p70SK protein ([2]; Fig 6E) was 1.4 Fold of mESC and the “Cdkn1a mRNA” value [3, 10] was 1.67 Fold of untreated control. The “Cdkn2a mRNA” value [3, 10] was 0.64 Fold of untreated control, the “Glb1 mRNA” value [3, 10] was 0.88 Fold of untreated control and the “Il6 mRNA” value [3, 10] was 0.85 Fold of untreated control. For the same compound, the “Il8 mRNA” value [3, 10] was 0.52 Fold of untreated control, the “Tp53 mRNA” value [3, 10] was 0.97 Fold of untreated control and the “Cdkn1a mRNA” value [3, 11] was 2.28 Fold of untreated control. The “Cdkn2a mRNA” value [3, 11] was 1.15 Fold of untreated control, the “Glb1 mRNA” value [3, 11] was 1.64 Fold of untreated control and the “Il6 mRNA” value [3, 11] was 1.79 Fold of untreated control. For the same compound, the “Il8 mRNA” value [3, 11] was 0.32 Fold of untreated control, the “Tp53 mRNA” value [3, 11] was 1.27 Fold of untreated control and the “Brca1 mRNA” value ([3]; EC d6 + 20 µM 24 h, Fig 5C) was 0.51 Fold of mESC. The “Chk1 mRNA” value ([3]; EC d6 + 20 µM 24 h, Fig 5C) was 1.27 Fold of mESC, the “Rad51 mRNA” value ([3]; EC d6 + 20 µM 24 h, Fig 5C) was 0.34 Fold of mESC and the “Pgc1a mRNA” value ([3]; EC d6 + 20 µM 24 h, Fig 6D) was 0.27 Fold of untreated control. For the same compound, the “Cldn5 mRNA” value ([3]; EC d6 + 20 µM 24 h, Fig 8C) was 4.85 Fold of EC d4 or d6, the “Ocln mRNA” value ([3]; EC d6 + 20 µM 24 h, Fig 8C) was 1.87 Fold of EC d4 or d6 and the “Tjp1 mRNA” value ([3]; EC d6 + 20 µM 24 h, Fig 8C) was 1.07 Fold of EC d4 or d6. The “ZO1 containing tight junctions in EC d6 differentiated from treated EC d4” value (EC d4 [4]) was “did not affect” and the “S-phase activity (EdU-positive cells)” value (EC d4 [5]) was “decrease in S-phase activity”.
